Where two headings read alike, the source gives them in different places.
What was measured:
D3 receptor = D3 receptor (Homo sapiens (Human), UniProt P35462); experiment: Radioligand binding ([3H]-spiperone) to cloned D3 receptor expressed in HEK-293 EBNA cells; conditions: HEK293 EBNA membranes, 0.5 nM [3H]-spiperone
D2 receptor = D2 receptor (Homo sapiens (Human), UniProt P14416); experiment: Radioligand binding ([3H]-spiperone) to cloned D2 receptor expressed in HEK-293 EBNA cells; conditions: HEK293 EBNA membranes, 0.7 nM [3H]-spiperone
Chain of D2 receptor (P14416 whole entry): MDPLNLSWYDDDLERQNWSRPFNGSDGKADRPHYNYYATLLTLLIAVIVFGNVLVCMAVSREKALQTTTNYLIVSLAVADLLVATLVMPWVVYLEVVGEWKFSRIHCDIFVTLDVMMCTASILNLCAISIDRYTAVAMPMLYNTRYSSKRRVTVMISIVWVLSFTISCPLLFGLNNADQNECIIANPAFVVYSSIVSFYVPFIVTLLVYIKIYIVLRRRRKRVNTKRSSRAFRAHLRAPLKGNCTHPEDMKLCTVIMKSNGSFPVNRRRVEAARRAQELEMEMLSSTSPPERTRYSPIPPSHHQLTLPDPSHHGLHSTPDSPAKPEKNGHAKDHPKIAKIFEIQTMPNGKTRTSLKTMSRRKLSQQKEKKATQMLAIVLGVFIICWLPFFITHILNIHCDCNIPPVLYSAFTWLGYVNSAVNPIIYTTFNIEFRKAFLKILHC

5-HT2A receptor = 5-HT2A receptor (Homo sapiens (Human), UniProt P28223); experiment: Radioligand binding ([3H]-ketanserin) to cloned 5-HT2A receptor expressed in HEK-293 EBNA cells
Chain of 5-HT2A receptor (P28223 whole entry): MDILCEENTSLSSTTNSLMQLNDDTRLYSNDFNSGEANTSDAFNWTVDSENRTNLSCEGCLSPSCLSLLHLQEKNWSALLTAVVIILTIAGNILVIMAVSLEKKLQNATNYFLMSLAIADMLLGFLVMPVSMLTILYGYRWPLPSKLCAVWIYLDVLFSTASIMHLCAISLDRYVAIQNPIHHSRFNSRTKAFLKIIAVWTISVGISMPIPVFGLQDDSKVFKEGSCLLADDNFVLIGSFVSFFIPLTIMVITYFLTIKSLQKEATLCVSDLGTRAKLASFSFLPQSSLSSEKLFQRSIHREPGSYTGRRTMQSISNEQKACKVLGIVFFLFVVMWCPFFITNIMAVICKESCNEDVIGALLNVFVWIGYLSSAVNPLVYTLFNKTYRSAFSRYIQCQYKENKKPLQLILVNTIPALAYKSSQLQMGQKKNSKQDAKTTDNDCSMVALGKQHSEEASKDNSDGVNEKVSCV
Method: HEK293 EBNA cells were transiently transfected with expression plasmids encoding for the human D2 or D3 or for the human 5-HT2A receptor, respectively. The cells were harvested 48 h post-transfection, washed three times with cold PBS and stored at −80° C. prior to use. The pellet was suspended in cold 50 mM Tris-HCl buffer containing 10 mM EDTA (pH 7.4) and was homogenized with a Polytron (Kinematica AG, Basel, Switzerland) for 20-30 sec at 12.000 rpm. After centrifugation at 48.000×g for 30 min at 4° C., the pellet was resuspended in cold 10 mM Tris-HCl buffer containing 0.1 mM EDTA (pH 7.4), homogenized, and centrifuged as above. This pellet was further resuspended in a smaller volume of ice cold 10 mM Tris-HCl buffer containing 0.1 mM EDTA (pH 7.4) and homogenized with a Polytron for 20-30 sec at 12.000 rpm. The protein content of this homogenate was determined with the Bio-Rad (Bradford) Protein Assay (Biorad Laboratories GmbH, München, Germany) according to the instructions of the manufacturer using gamma globulin as the standard. This homogenate was stored at −80° C. in aliquots and thawed immediately prior to use.
Radioligand Binding Assay
Aliquots of membrane preparations were thawed at RT, resupended in assay buffer (D2, D3: 50 mM Tris-HCl, 120 mM NaCl, 5 mM MgCl2, 1 mM EDTA, 5 mM KCl, 1.5 mM CaCl2, pH=7.4; 5-HT2A: 50 mM Tris-HCl, 10 mM MgCl2, 1 mM EGTA, pH=7.4), homogenized with a Polytron for 20-30 sec at 12.000 rpm and adjusted to a final concentration of approximately 7.5 μg protein/well (D2, D3) and 15 μg protein/well (5-HT2A), respectively.
The binding affinity (Ki) of the compounds was determined using radioligand binding. […] The nonspecific binding was determined with equally composed reaction mixtures in the presence of 10 μM unlabelled spiperone. Per well 45 μl of Microscint 40 (Perkin Elmer, Schwerzenbach, Switzerland) was added, plates for sealed, shaken for 20 min and counted for 3 min on a Topcount Microplate Scintillation Counter (Canberra Packard SA, Zürich, Switzerland) with quenching correction.
The CPM value for each duplicate of a concentration of competing compound was averaged (y1), then the % specific binding was calculated according to the equation (((y1−non-specific)/(total binding−non-specific))×100). Graphs were plotted with the % specific binding using XLfit, a curve fitting program that iteratively plots the data using Levenberg-Marquardt algorithm. The single site competition analysis equation used was y=A+((B−A)/(1+((x/C)D))), where y is the % specific binding, A is the minimum y, B is the maximum y, C is the IC50, x is the log 10 of the concentration of the competing compound and D is the slope of the curve (the Hill Coefficient). […] The affinity constant (Ki) was calculated using the Cheng-Prusoff equation Ki=(IC50/1+([L]/Kd), where [L] is the concentration of radioligand and Kd is the dissociation constant of the radioligand at the receptor as determined by the saturation isotherm.

Chain of D3 receptor (P35462 whole entry): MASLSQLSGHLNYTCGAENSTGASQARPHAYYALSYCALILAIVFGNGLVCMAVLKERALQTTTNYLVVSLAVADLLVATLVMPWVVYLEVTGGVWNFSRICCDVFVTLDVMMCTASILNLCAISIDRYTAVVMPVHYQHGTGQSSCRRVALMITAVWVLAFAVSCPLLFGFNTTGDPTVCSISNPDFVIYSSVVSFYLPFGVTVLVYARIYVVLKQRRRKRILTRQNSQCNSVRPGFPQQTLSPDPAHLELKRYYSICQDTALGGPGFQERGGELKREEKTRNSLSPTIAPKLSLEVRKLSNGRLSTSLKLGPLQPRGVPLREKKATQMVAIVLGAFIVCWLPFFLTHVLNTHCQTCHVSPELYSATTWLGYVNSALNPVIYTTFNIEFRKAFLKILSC

melting point [°C] | Structure (SMILES) | Ki (D3 receptor) [nM] | Ki (D2 receptor) [nM] | Ki (5-HT2A receptor) [nM] | Ki (5-HT2A receptor; human 5-HT2A receptor, HEK293 EBNA membranes, 1.1 nM [3H]-ketanserin) [nM]
190 | O=C(CC1COC1)N[C@H]1CC[C@H](CCN2CCN(c3cccc4c3OCO4)CC2)CC1 [Example 22, Trans-N-{4-[2-(4-Benzo[1,3]dioxol-4-yl-piperazin-1-yl)-ethyl]-cyclohexyl}-2-oxetan-3-yl-acetamide] | 2.06 | 106 |  | 
 | CC(C)[C@@H](O)C(=O)N[C@H]1CC[C@H](CCN2CCN(c3cccc4c3OCO4)CC2)CC1 [Example 39, (R)-Trans-N-{4-[2-(4-Benzo[1,3]dioxol-4-yl-piperazin-1-yl)-ethyl]-cyclohexyl}-2-hydroxy-3-methyl-butyramide] | 5.77 | 90.2 | 34.7 | 
 | CC(C)[C@H](O)C(=O)N[C@H]1CC[C@H](CCN2CCN(c3cccc4c3OCO4)CC2)CC1 [Example 40, (S)-Trans-N-{4-[2-(4-Benzo[1,3]dioxol-4-yl-piperazin-1-yl)-ethyl]-cyclohexyl}-2-hydroxy-3-methyl-butyramide] | 14.8 | 73.4 | 22.5 | 
 | O=C(N[C@H]1CC[C@H](CCN2CCN(c3cccc4c3OCO4)CC2)CC1)C1CCOCC1 [Example 43, Tetrahydro-pyran-4-carboxylic acid-trans-N-{4-[2-(4-benzo[1,3]dioxol-4-yl-piperazin-1-yl)-ethyl]-cyclohexyl}-amide] | 4.48 | 219 | 7.74 | 
 | O=C(N[C@H]1CC[C@H](CCN2CCN(c3cccc4c3OCO4)CC2)CC1)c1ccc2c(c1)OCCO2 [Example 49, 2,3-Dihydro-benzo[1,4]dioxine-6-carboxylic acid-trans-N-{4-[2-(4-benzo[1,3]dioxol-4-yl-piperazin-1-yl)-ethyl]-cyclohexyl}-amide] | 4.59 | 4820 | 10.7 | 
 | O=C(N[C@H]1CC[C@H](CCN2CCN(c3cccc4c3OCO4)CC2)CC1)C1CCS(=O)(=O)C1 (stereo partly drawn) [Example 52, 1,1-Dioxo-tetrahydro-1,6-thiophene-3-carboxylic acid-trans-N-{4-[2-(4-benzo[1,3]dioxol-4-yl-piperazin-1-yl)-ethyl]-cyclohexyl}-amide] | 3.56 | 59 |  | 4.3
 | CN1CCC(C(=O)N[C@H]2CC[C@H](CCN3CCN(c4cccc5c4OCO5)CC3)CC2)CC1 [Example 57, 1-Methyl-piperidine-4-carboxylic acid-trans-N-{4-[2-(4-benzo[1,3]dioxol-4-yl-piperazin-1-yl)-ethyl]-cyclohexyl}-amide] | 24.9 | 62.9 | 15.3 | 
 | CC1(C(=O)N[C@H]2CC[C@H](CCN3CCN(c4cccc5c4OCO5)CC3)CC2)COC1 [Example 58, 3-Methyl-oxetane-3-carboxylic acid-trans-N-{4-[2-(4-benzo[1,3]dioxol-4-yl-piperazin-1-yl)-ethyl]-cyclohexyl}-amide] | 6.82 | 81.1 | 15.6 | 
 | CN1CCN(CC(=O)N[C@H]2CC[C@H](CCN3CCN(c4cccc5c4OCO5)CC3)CC2)CC1 [Example 61, Trans-N-{4-[2-(4-Benzo[1,3]dioxol-4-yl-piperazin-1-yl)-ethyl]-cyclohexyl}-2-(4-methyl-piperazin-1-yl)-acetamide] | 4.63 | 38.1 | 16 | 
 | COC1(C(=O)N[C@H]2CC[C@H](CCN3CCN(c4cccc5c4OCO5)CC3)CC2)CC1 [Example 62, 1-Methoxy-cyclopropanecarboxylic acid-trans-N-{4-[2-(4-benzo[1,3]dioxol-4-yl-piperazin-1-yl)-ethyl]-cyclohexyl}-amide] | 14.3 | 86.5 | 6.27 | 
 | CN(C)S(=O)(=O)N[C@H]1CC[C@H](CCN2CCN(c3cccc4c3OCO4)CC2)CC1 [Example 76, N-trans-{4-[2-(4-benzo[1,3]dioxol-4-yl-piperazin-1-yl)-ethyl]-cyclohexyl}-N,N-dimethyl-sulfamide] | 3.36 | 128 | 21.6 | 

From patent US8722683B2, “Benzodioxole piperazine compounds” (Hoffmann LA-Roche Inc., priority 2011, dated 2014)
